Consider 1 compound from article PMC3068151 (PLoS ONE, 2011).

One experiment has as its target T1, EphB4 (Homo sapiens, UniProt P54760).
T1 construct: EphB4 phosphorylation on T47D breast cancer cells; endogenous in cells; host or cells: T47D
T1 sequence (P54760 16-987): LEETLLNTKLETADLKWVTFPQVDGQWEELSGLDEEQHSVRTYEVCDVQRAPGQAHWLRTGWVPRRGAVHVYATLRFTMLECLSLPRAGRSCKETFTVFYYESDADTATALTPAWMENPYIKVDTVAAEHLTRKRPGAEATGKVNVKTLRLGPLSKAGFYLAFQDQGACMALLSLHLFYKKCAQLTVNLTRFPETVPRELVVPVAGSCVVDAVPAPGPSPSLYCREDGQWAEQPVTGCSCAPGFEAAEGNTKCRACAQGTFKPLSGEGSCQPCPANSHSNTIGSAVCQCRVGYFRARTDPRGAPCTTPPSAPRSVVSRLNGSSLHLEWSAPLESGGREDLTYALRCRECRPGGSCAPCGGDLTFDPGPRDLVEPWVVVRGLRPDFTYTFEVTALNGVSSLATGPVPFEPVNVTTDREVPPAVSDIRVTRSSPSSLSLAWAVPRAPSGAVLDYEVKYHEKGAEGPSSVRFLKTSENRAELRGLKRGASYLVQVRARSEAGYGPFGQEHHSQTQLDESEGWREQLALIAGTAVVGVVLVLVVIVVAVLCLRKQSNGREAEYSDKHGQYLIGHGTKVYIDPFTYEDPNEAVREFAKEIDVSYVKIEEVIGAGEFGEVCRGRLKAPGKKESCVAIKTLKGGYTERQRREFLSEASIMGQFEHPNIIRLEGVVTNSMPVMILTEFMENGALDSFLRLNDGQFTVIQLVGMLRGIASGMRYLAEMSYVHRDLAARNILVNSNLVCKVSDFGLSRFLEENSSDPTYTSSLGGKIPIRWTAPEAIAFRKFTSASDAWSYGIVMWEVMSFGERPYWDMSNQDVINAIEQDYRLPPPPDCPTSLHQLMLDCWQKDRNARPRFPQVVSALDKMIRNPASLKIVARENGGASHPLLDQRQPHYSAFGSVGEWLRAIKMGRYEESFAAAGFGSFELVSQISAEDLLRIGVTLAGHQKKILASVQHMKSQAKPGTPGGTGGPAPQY
Description: Phosphorylated-EphB4 sandwich ELISA in T47D cell lysates. The note with it: T47D cells, 3 µg/ml ephrinB2-Fc preclustered with 0.3 µg/ml IgG Fc fragment; read-out: IC50 EphB4 phosphorylation. It counts as cell-based. The procedure:
Cells were seeded in 12-well plates at concentration of 10^5cells/ml in complete medium until they reached ∼40% confluence and serum starved overnight. The day after cells were treated with compounds under study, vehicle or standard drug, stimulated with the proper agonist, rinsed with sterile PBS and solubilized in lysis buffer. The lysates were resuspended and rocked at 4°C for 30 minutes and then centrifuged at 14000 xg for 5 minutes. The protein content of supernatant was measured with BCA protein assay kit (Thermo scientific), standardized to 200 µg/ml and transferred into a clean test tube ready to be used.
EphA2-, EphB4- and EGFR-phosphorylation were measured in cell lysates using DuoSet®IC Sandwich ELISA (RnD Systems, #DYC4056, #DYC4057 and #DYC1095, respectively) following manufacturer's protocol. […] The day after wells were washed and blocked for 1 hour at room temperature. After that, wells were washed and 100 µl/well of lysates were added at room temperature for 2 hours; wells were washed and incubated with Detection Antibody at room temperature for 2 hours.
EphB4 phosphorylation was stimulated with 3 µg/ml ephrinB2-Fc, preclustered with 0.3 µg/ml IgG Fc fragment on T47D cells (G, H, I). […] Phospho-EphA2/B4 levels are relative to ephrinA1/B2-Fc+DMSO. Data are the means of at least three independent experiment ± st. err. […]
On the technique in general: An ELISA detects its analyte on a solid surface through an enzyme-linked reagent.

Another experiment addresses T2, EphA2-ephrinA1 binding (Mus musculus, UniProt Q03145).
T2 construct: we immobilized EphA2-Fc- ectodomain on proper ELISA plates; purchased R&D systems 639-A2 (EphA2-Fc); BT602 (biotinylated ephrinA1-Fc)
The experiment can be described thus: ELISA EphA2-ephrinA1 binding (displacement and saturation). The procedure: Our chemical collection (Table S1) was stocked in a 20 mM dimethyl sulfoxide (DMSO) solution and we performed binding assay at a concentration of 200 µM. Only compounds displacing more than 40% ephrinA1 from EphA2 receptor were considered for a full concentration-binding curve. […] The day after wells were washed three times with washing buffer (PBS +0.05% tween20, pH 7.5) and blocked with 300 µl of blocking solution (PBS +0.5% BSA) for 1 hour at 37°C. Compounds were added to the wells at proper concentration in 1% dimethyl sulfoxide (DMSO) and incubated at 37°C for 1 hour. Biotinylated ephrinA1-Fc (R&D BT602) was added at 37°C for 4 hours at 30 ng/ml in displacement assays or in a range from 1 to 2000 ng/ml in saturation studies. […] The reaction was stopped with 3N HCl 100 µl/well and the absorbance was measured using an ELISA plate reader (Sunrise, TECAN, Switzerland) at 450 nm.
The IC50 value was determined using one-site competition non-linear regression and Kd values of the curves with or without antagonists were calculated using one-binding site non-linear regression analysis with Prism software (GraphPad Software Inc.). The Ki was obtained using Schild plot where Log[DR-1] is a function of the negative Log10 of the inhibitor concentration. The Hill's coefficient was calculated using linear fitting to evaluate whether the inhibition was competitive or uncompetitive.
To identify compounds interfering with EphA2-ephrinA1 binding we immobilized EphA2-Fc- ectodomain on proper ELISA plates and binding of biotinylated-ephrin-A1-Fc was detected using the colorimetric reaction developed by streptavidine-HRP and tetramethylbenzidine.

For another experiment, the system named is VEGFR. Description: VEGFR activity, cellular dielectric spectroscopy in HUVE cells. It counts as cell-based. The note with it: 100 µM, 0.1 nM VEGF. On the procedure:
Impedance measurement was monitored for 10 minutes. VEGF receptor tyrosine kinase inhibitor II (Calbiochem-Merck, Darmstadt, Germany) was used as a standard reference.
These assays were performed at CEREP (Celle L'Evescault, France).
A, B) EGFR phosphorylation was induced by 30 ng/ml and 10 ng/ml EGF on PC3 (A) and HT29 (B) cells, respectively. […] Data are the means of two experiments ± st. err.

The term IC50 denotes the concentration that gives 50% inhibition. A word on the Ki: it is the dissociation constant of the complex between target and ligand, obtained from inhibition or displacement.

T2 sequence (Q03145 26-538 limits assumed): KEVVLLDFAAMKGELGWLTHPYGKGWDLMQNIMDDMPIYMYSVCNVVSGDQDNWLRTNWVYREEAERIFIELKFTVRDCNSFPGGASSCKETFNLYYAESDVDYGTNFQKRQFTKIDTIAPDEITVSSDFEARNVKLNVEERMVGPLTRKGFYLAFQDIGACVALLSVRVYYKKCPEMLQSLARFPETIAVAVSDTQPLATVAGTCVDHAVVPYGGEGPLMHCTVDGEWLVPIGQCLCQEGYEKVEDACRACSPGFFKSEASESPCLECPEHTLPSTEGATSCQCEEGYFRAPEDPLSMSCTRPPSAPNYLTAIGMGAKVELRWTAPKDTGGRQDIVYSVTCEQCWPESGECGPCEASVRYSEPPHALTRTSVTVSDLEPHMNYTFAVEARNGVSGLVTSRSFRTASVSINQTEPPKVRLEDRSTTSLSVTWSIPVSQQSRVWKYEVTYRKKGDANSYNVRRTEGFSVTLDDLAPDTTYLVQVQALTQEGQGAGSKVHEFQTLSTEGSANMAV

Consider `C[C@H](CCC(=O)O)[C@H]1CC[C@H]2[C@@H]3CC[C@@H]4C[C@H](O)CC[C@]4(C)[C@H]3CC[C@]12C` [LCA, lithocholic acid], for which the IC50 was found to be 141 µM on EphB4 and 57 µM on EphA2-ephrinA1 binding (read-out: IC50 displacement of biotinylated-ephrinA1-Fc from EphA2). For the same compound, the “reduction of EphA2-ephrinA1 binding (library screening)” value at EphA2-ephrinA1 binding (200 µM, incubated 1 hour) was “significantly reduce”. Also, the “decrease of EphA2-ephrinA1 binding” value at EphA2-ephrinA1 binding (bile acids, repeat of the 200 µM experiment) is listed as 68.2%±4.3. Besides, the Ki on EphA2-ephrinA1 binding (corresponding to pKi, read-out: Ki (Schild plot)) came to 49 µM. Further, the “slope of Schild plot” value on EphA2-ephrinA1 binding (saturation curves with increasing LCA, r^2 = 0.9664) came out at 0.8618. For the same compound, the “effect on VEGFR activity as agonist or antagonist” value with VEGFR is on record as “failed to affect activity”.
